Assay: The compound was evaluated for time dependent inhibitory activity against Lipoprotein associated Phospholipase A2 (Lp-PLA2) enzyme after 10 min incubation.

IC50 [nM] | SMILES
12 | CCCCCCCCCCCCCCCCNC(=O)/C=C1/OC(=O)N2CCC[C@H]12
28 | CCCCCCCCCCCCCCNC(=O)/C=C1/OC(=O)N2CCC[C@@H]12
170 | CCCCCCCCCCCCNC(=O)/C=C1/OC(=O)N2CCC[C@@H]12
25 | CCCCCCCCCCCCCCCCNC(=O)/C=C1/OC(=O)N2CCC[C@@H]12
51 | CCCCCCCCCCC[C@H](CC(=O)NC(=O)/C=C1/OC(=O)N2CCCC12)O[C@@H]1O[C@@H](C)[C@H](O)[C@@H](O)[C@H]1O (stereo partly drawn)

Assay: The compound was evaluated for time dependent inhibitory activity against Lipoprotein associated Phospholipase A2 (Lp-PLA2) enzyme after 10 min incubation; Inactive; call rule not given here

IC50 | SMILES
Not Active | CCCCCCCCCCCCCCC#C/C=C1/OC(=O)N2CCC[C@@H]12
Not Active | CCCCCCCC(=O)OCCCCC#C/C=C1/OC(=O)N2CCC[C@@H]12
Not Active | O=C1O/C(=C/C#CCCCCO)[C@@H]2CCCN12
